{"source": "paper PMC11702208", "about": "(RSC Advances, 2025)", "system": "T-47D cells", "test": "Cell cycle analysis", "assay_type": "cell-based", "settings": "compound at IC50 concentration"}
{"molecule": "CCN(CC)c1ccc(C=NNC(=O)CSc2nc3ccccc3c(=O)n2Cc2ccc(S(N)(=O)=O)cc2)c(O)c1", "note": "[Compound 5, 4-((2-((2-(2-(4-(Diethylamino)-2-hydroxybenzylidene)hydrazineyl)-2-oxoethyl)thio)-4-oxoquinazolin-3(4H)-yl)methyl)benzenesulfonamide]", "values": [{"measurement": "%G0-G1", "value": 46.31, "unit": "%"}, {"measurement": "%G2-M", "value": 26.3, "unit": "%"}, {"measurement": "%S", "value": 20.9, "unit": "%"}, {"measurement": "%G2-M", "setting": "listed as Five", "value": 26.27, "unit": "%"}, {"measurement": "%S", "setting": "listed as Five", "value": 27.42, "unit": "%"}]}
